Measured values published in patent US6352985B1, “Benzimidazole compounds” (Fujisawa Pharmaceutical Co., Ltd., priority 1995, dated 2002).

Assays:
[1] = tested on: 3T3-L1 cells (pre-adipocytes); assay: Stimulatory activity of triglyceride (TG) accumulation in 3T3-L1 cells (pre-adipocytes); type: cell-based; settings: test compound 1 × 10^−5 M with insulin; 1×10^−6 M pioglitazone defined as 100%, insulin (+) without the chemical agent defined as 0%
Procedure: Stimulatory activity of triglyceride (TG) accumulation in 3T3-L1 cells (pre-adipocytes)
3T3-L1 cells just before a confluent state were prepared in an F75 flask. The medium was removed, and the residue was washed twice with 5 ml of PBS (−). The cells were detached using a solution of EDTA and trypsin. Ten milliliters of the medium were added thereto to form a suspension. This suspension was collected in a 50-milliliter centrifuge tube, and was subjected to centrifugation at 1,000 rpm for 5 minutes. Thus, the cells were precipitated, and the supernatant was removed. The cells were re-suspended in 20 ml of the medium, and the number of cells was counted. The suspension was adjusted such that the concentration of the cells reached 6×10^4 cells/ml, and was inoculated into a 24-well plate in an amount of 1 ml/well. In this state, the incubation was conducted in an incubator at 37° C. in 5% CO2 for 2 days.
A solution of 1-mM dexamethasone and 500-mM IBMX was prepared in DMSO. […]
Four to five days after the addition of the test chemical agent and the insulin solution, the 24-well plate was withdrawn from the incubator. […] Subsequently, the residue was extracted twice with isopropyl alcohol, and TG was measured at a wavelength of 410 nm using a TG-measuring kit (acetyl-acetone method). […]

[2] = tested on: db/db mice; assay: Test for activity of decreasing plasma glucose using db/db mice; type: in vivo; settings: female db/db mice, difference between db/db and +/+ mouse defined as 100%
Procedure: Test for activity of decreasing plasma glucose using db/db mice
Five-week-old female mice [C57BL/KsJ-dbm db+/db+, C57BL/KsJ-dbm +m/+m (Jackson Laboratory) were purchased, and were kept for 2 to 3 weeks. Then, these mice were used in the test.
A test compound was mixed with a powdered chow (CE-2, made by Nippon Clea) using a mortar. According to the amount of food intake of the mouse, the mixing ratios, 0.1%, 0.03%, and 0.01% corresponded to 100, 30, and 10 mg/kg body weight, respectively. The mixed chow was changed twice a week. The feed amount and the remaining amount were recorded, and the intake was calculated from the difference therebetween.
The female db/db mice were grouped according to the body weight, the plasma glucose and the plasma triglyceride concentrations. Then, the mixture containing the test compound was administered to the mice for 14 days (from 8 to 10 weeks old). […] Plasma glucose, triglyceride, and insulin concentrations were measured on day 0 and day 14 as well as plasma glucose and triglyceride concentrations on day 7. The body weight was measured on day 0, day 7, and day 14. […]
The plasma glucose was measured by a glucose oxidase method (Glucose CII-Test Wako made by Wako Pure Chemical Industries, Ltd.) using from 10 to 15 μl of plasma. The plasma triglyceride concentration was measured by a GPO-p-chlorophenol method (Triglyceride G-Test Wako made by Wako Pure Chemical Industries, Ltd.) or a GPO-DAOS method (Triglyceride E-Test Wako) using from 10 to 15 μl of plasma. […] The plasma insulin concentration was measured by radio immuno assay method (Phadesef Insulin RIA Kit made by Cabi Pharmacia) using 20 μl of plasma (which can be stored at −20° C.).
The difference in the plasma glucose and the plasma triglyceride concentrations betweeen the db/db mouse and the +/+ mouse was defined as 100%, and the rate (%) of decrease in the plasma glucose and the plasma triglyceride concentrations of the group to which the test compound was administered was calculated.

[3] = dose 30 mg/kg mixed with powdered chow for 14 days

| melting point | SMILES | other results |
| --- | --- | --- |
| 352 to 354.5 °C | Cc1nc2ccc(C(=O)NS(=O)(=O)c3ccc4ccccc4c3)cc2n1Cc1ccccc1Cl.[Na] | – |
| 360 to 362 °C (dec.) | Cc1nc2ccc(C(=O)NS(=O)(=O)c3ccc(Cl)cc3)cc2n1Cc1ccccc1Cl.[Na] | – |
| 332 to 335 °C (dec.) | Cc1nc2ccc(C(=O)NS(=O)(=O)C(F)(F)F)cc2n1Cc1ccccc1Cl.Cl | – |
| 279 to 282 °C | CCCc1nc2ccc(C(=O)NS(=O)(=O)c3ccccc3)cc2n1Cc1ccc(-c2ccccc2)cc1.[K] | – |
| 310.1 to 312.7 °C | CC(C)c1nc2ccc(C(=O)NS(=O)(=O)c3ccccc3)cc2n1Cc1ccc(-c2ccccc2)cc1.[K] | – |
| 348 to 352 °C (dec.) | Cc1nc2ccc(C(=O)NS(=O)(=O)c3cccc4cccnc34)cc2n1Cc1ccccc1Cl.[Na] | – |
| 359.5 to 362 °C | Cc1nc2ccc(C(=O)NS(=O)(=O)c3ccc(C(C)(C)C)cc3)cc2n1Cc1ccccc1Cl.[Na] | – |
| 220.8 to 224.8 °C | O=C(NS(=O)(=O)c1ccccc1)c1ccc2nc(C3CC3)n(Cc3ccc(-c4ccccc4)cc3)c2c1.[K] | – |
| – | O=C(NS(=O)(=O)Cc1ccccc1)c1ccc2nc(C3CC3)n(Cc3ccccc3F)c2c1 [6-benzylsulfonylcarbamoyl-2-cyclopropyl-1-(2-fluorobenzyl)benzimidazole] | Stimulatory activity of TG accumulation (%) [1]: 38.2% |
| 273.5 to 274.3 °C | Cc1nc2ccc(C(=O)NS(=O)(=O)c3ccccc3)cc2n1Cc1ccccc1Cl [Compound (163), 6-benzenesulfonylcarbamoyl-1-(2-chlorobenzyl)-2-methylbenzimidazole] | Activity of decreasing plasma glucose (%) [2, 3]: 72% |
| – | CCCCS(=O)(=O)NC(=O)c1ccc2nc(C)n(Cc3ccc(-c4ccccc4)cc3)c2c1 [Compound (172), 1-(biphenyl-4-ylmethyl)-6-(1-butanesulfonylcarbamoyl)-2-methylbenzimidazole] | Activity of decreasing plasma glucose (%) ([2]; dose 10 mg/kg mixed with powdered chow for 14 days): 70-80% |
| – | O=C(NS(=O)(=O)c1ccccc1)c1ccc2nc(C3CC3)n(Cc3ccccc3F)c2c1 [Compound (177), 6-benzenesulfonylcarbamoyl-2-cyclopropyl-1-(2-fluorobenzyl)benzimidazole] | Activity of decreasing plasma glucose (%) [2, 3]: 34.5% |
| 243.1 to 244.3 °C | Cc1nc2ccc(C=CC(=O)NS(=O)(=O)c3ccccc3)cc2n1Cc1ccccc1Cl [Compound (178), N-benzenesulfonyl-3-[1-(2-chlorobenzyl)-2-methylbenzimidazol-6-yl]acrylamide] | – |
| 254.5 to 257.5 °C (dec.) | Cc1nc2ccc(C(=O)NS(=O)(=O)c3cccc(Cl)c3)cc2n1Cc1ccccc1Cl [Compound (209), 6-(3-chlorobenzenesulfonylcarbamoyl)-1-(2-chlorobenzyl)-2-methylbenzimidazole] | – |
| 271 to 274 °C | COc1ccc(S(=O)(=O)NC(=O)c2ccc3nc(C)n(Cc4ccccc4Cl)c3c2)cc1 [Compound (217), 1-(2-chlorobenzyl)-6-(4-methoxybenzenesulfonylcarbamoyl)-2-methylbenzimidazole] | – |
| 193 to 196 °C | Cc1nc2ccc(C(=O)NS(=O)(=O)Cc3ccccc3)cc2n1Cc1ccccc1Cl [Compound (218), 1-(2-chlorobenzyl)-2-methyl-6-(α-toluenesulfonylcarbamoyl)benzimidazole] | – |
| 266.5 to 267.5 °C | Cc1ccc(C)c(S(=O)(=O)NC(=O)c2ccc3nc(C)n(Cc4ccccc4Cl)c3c2)c1 [Compound (219), 1-(2-chlorobenzyl)-6-(2,5-dimethylbenzenesulfonylcarbamoyl)-2-methylbenzimidazole] | – |
| 330 to 332 °C | Cc1nc2ccc(C(=O)NS(=O)(=O)c3ccc([N+](=O)[O-])cc3)cc2n1Cc1ccccc1Cl [Compound (220), 1-(2-chlorobenzyl)-2-methyl-6-(4-nitrobenzenesulfonylcarbamoyl)benzimidazole] | – |
| 288 to 292 °C | Cc1nc2ccc(C(=O)NS(=O)(=O)c3ccc(C(F)(F)F)cc3)cc2n1Cc1ccccc1Cl [Compound (221), 1-(2-chlorobenzyl)-2-methyl-6-[4-(trifluoromethyl)benzenesulfonylcarbamoyl]benzimidazole] | – |
| 264 to 267 °C | Cc1nc2ccc(C(=O)NS(=O)(=O)c3ccccc3Cl)cc2n1Cc1ccccc1Cl.N [Compound (222), 6-(2-chlorobenzenesulfonylcarbamoyl)-1-(2-chlorobenzyl)-2-methylbenzimidazole ammonium salt] | – |
| 225 to 228 °C | CNc1nc2ccc(C(=O)NS(=O)(=O)c3ccccc3)cc2n1Cc1ccc(-c2ccccc2)cc1 [Compound (230), 6-benzenesulfonylcarbamoyl-1-(biphenyl-4-ylmethyl)-2-methylaminobenzimidazole] | – |
| 352.5 to 355 °C | Nc1nc2ccc(C(=O)NS(=O)(=O)c3ccccc3)cc2n1Cc1ccc(-c2ccccc2)cc1 [Compound (231), 2-amino-6-benzenesulfonylcarbamoyl-1-(biphenyl-4-ylmethyl)benzimidazole] | – |
| 229.8 to 233 °C | Cc1nc2ccc(CCC(=O)NS(=O)(=O)c3ccccc3)cc2n1Cc1ccccc1Cl [Compound (266), N-benzenesulfonyl-3-[1-(2-chlorobenzyl)-2-methylbenzimidazole-6-yl]propionamide] | – |
| 111 to 112.4 °C | CCCCS(=O)(=O)NC(=O)c1ccc2nc(C)n(Cc3ccc(C(=O)c4ccccc4)cc3)c2c1 [Compound (373), 1-[(4-benzoyl)benzyl]-6-(1-butanesulfonylcarbamoyl)-2-methylbenzimidazole] | – |
| 254 to 256 °C | CCCCS(=O)(=O)NC(=O)c1ccc2nc(O)n(Cc3ccc(Cl)cc3Cl)c2c1 [Compound (379), 6-(1-butanesulfonylcarbamoyl)-1-(2,4-dichlorobenzyl)-2-hydroxybenzimidazole] | – |
